Test results taken from PMC3557594 (Biochimie, 2012).
Like-named read-outs stand apart in the source and are kept apart here.

Tests used:
[1] = biological target: T1, Neisseria meningitides alanine aminopeptidase (NmAPN) (Neisseria meningitidis, UniProt Q9JYV4); type: biochemical; details: substrate 3 μM, enzyme 1.37 nM, pH 7.5
T1 sequence (Q9JYV4 1-867): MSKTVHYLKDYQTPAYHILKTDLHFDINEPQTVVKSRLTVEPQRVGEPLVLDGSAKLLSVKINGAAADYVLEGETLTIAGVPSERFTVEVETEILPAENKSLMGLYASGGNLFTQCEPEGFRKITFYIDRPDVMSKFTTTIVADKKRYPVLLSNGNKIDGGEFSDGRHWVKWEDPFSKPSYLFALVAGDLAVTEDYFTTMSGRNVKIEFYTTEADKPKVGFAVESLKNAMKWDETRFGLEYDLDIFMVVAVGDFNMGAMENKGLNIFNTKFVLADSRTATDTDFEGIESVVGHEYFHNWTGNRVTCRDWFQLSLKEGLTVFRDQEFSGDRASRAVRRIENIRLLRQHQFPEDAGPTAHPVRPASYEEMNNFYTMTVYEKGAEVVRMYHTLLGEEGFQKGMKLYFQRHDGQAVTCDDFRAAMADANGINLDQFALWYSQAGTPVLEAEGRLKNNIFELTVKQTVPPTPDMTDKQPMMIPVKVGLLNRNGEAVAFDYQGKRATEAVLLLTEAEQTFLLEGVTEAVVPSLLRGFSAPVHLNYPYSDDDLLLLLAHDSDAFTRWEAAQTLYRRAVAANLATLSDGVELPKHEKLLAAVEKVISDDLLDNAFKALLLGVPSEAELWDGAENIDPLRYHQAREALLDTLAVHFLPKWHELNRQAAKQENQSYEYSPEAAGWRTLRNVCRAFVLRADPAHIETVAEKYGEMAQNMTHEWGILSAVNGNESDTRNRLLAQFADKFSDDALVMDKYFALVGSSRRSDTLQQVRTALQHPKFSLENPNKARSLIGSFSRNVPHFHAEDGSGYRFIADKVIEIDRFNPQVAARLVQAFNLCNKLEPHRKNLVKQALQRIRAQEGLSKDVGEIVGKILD

NmAPN = NmAPN (Neisseria meningitidis, UniProt Q9JYV4); assay: biochemical; type: biochemical, Neisseria meningitides; details: for mode of inhibition: Lineweaver-Burk plot
[2] = biological target: T1, Neisseria meningitides alanine aminopeptidase (NmAPN); assay: Kinetic parameters determination; type: biochemical; details: ACC substrate, 50 mM Tris-HCl pH 7.5, 37 °C, enzyme 1.13 nM
porcine kidney APN = details: cited from earlier work
PfAPN = details: Plasmodium falciparum APN; cited from earlier work

With `N[C@@H](Cc1ccc(OCC(=O)O)cc1)C(=O)O` [4(1-carboxymethoxy)-L-Phe] the “hydrolysis of ACC substrate by NmAPN (in words)” value [1] was “not hydrolyzed”.

Work on `N=C(N)NCCCC(N)P(=O)(O)O` (stereo not shown) [Compound 1] yielded an IC50 (NmAPN) of 1910 ± 180 nM and a Ki (NmAPN) of 1460 ± 140 nM.

Work on `NC(CCc1ccccc1)P(=O)(O)O` (stereo not shown) [Compound 2] yielded an IC50 (NmAPN) of 1660 ± 70 nM.

In the case of `NC(CCc1ccccc1)[PH](=O)O` (stereo not shown) [Compound 3], the IC50 (NmAPN) is reported as 1910 ± 50 nM.

In the case of `NC(=O)Cc1cc(=O)oc2cc(NC(=O)[C@@H](N)Cc3ccc(Br)cc3)ccc12` [Compound 4-Br-L-Phe], the Km [2] is reported as over 250 µM.

For `NC(CCc1ccccc1)P(=O)(O)CC(Cc1ccccc1)C(=O)O` (stereo not shown) [Compound 4], the Ki (porcine kidney APN) is listed as 276 nM, the IC50 (NmAPN) is listed as 397 ± 24 nM and the Ki (NmAPN) is listed as 302 ± 18 nM. For the same compound, the mode of inhibition (NmAPN) was “reversible, competitive and tight-binding inhibitors”.

For `NC(CCc1ccccc1)P(=O)(O)CC(Cc1ccc(O)cc1)C(=O)O` (stereo not shown) [Compound 5], the Ki (PfAPN) is listed as 232 nM, the Ki (porcine kidney APN) is listed as 36 nM and the IC50 (NmAPN) is listed as 70 ± 7 nM. The mode of inhibition (NmAPN) was “reversible, competitive and tight-binding inhibitors”.

`NC(CCc1ccccc1)P(=O)(O)CNC(Cc1ccc(O)cc1)C(=O)O` (stereo not shown) [Compound 6] showed an IC50 (NmAPN; L-Arg-ACC 20 μM, enzyme 0.85 nM, 30 min preincubation, 37 °C) of 3290 ± 150 nM and a Ki (NmAPN; calculated from IC50 by Cheng-Prusoff equation, L-Arg-ACC 20 μM) of 2510 ± 110 nM.

`NCC(=O)Nc1ccc2c(CC(N)=O)cc(=O)oc2c1` [Gly] gave a Km [2] of over 250 µM.

In the case of `CC[C@H](N)C(=O)Nc1ccc2c(CC(N)=O)cc(=O)oc2c1` [L-Abu], the “rate of hydrolysis, proportional to kcat/Km, as percentage of the best substrate cleavage (L-hArg-ACC, 100%)” value [1] is reported as 20–40%.

In the case of `N=C(NCCC[C@H](N)C(=O)Nc1ccc2c(CC(N)=O)cc(=O)oc2c1)N[N+](=O)[O-]` [L-Arg(NO2)], the “rate of hydrolysis, proportional to kcat/Km, as percentage of the best substrate cleavage (L-hArg-ACC, 100%)” value [1] is reported as 38.5–74.0%.

Work on `NC(=O)CC[C@H](N)C(=O)Nc1ccc2c(CC(N)=O)cc(=O)oc2c1` [L-Gln] yielded a Km [2] of over 250 µM.

For `NC(=O)Cc1cc(=O)oc2cc(NC(=O)[C@@H](N)CCC(=O)OCc3ccccc3)ccc12` [L-Glu(Bzl)], the “rate of hydrolysis, proportional to kcat/Km, as percentage of the best substrate cleavage (L-hArg-ACC, 100%)” value [1] was 38.5–74.0%.

With `NCCC(=O)O` [β-Ala] the “hydrolysis of ACC substrate by NmAPN (in words)” value [1] was “not hydrolyzed”.
